# Tested on: Dirofilaria immitis
# Assay: Dirofilaria immitis microfilariae motility assay or L4 stage assay (the source does not say which gave the EC50 values)
# Assay type: cell-based
# Settings: 72 h, read-out: EC50 values
row,Structure (SMILES),EC50
1,"O=C(Nc1nc(-c2ccccn2)ns1)c1cccc(Nc2ccccc2)c1 [Compound 119, 3-anilino-N-[3-(2-pyridyl)-1,2,4-thiadiazol-5-yl]benzamide]",< 5 µM
2,"CC(C)(C)OC(=O)N1CCN(C(=O)c2ccc(C(=O)Nc3nc(-c4ccccn4)ns3)cc2)CC1 [Compound 70, tert-butyl 4-[4-[[3-(2-pyridyl)-1,2,4-thiadiazol-5-yl]carbamoyl]benzoyl]piperazine-1-carboxylate]",< 5 µM
3,"O=C(Nc1nc(-c2ccccn2)ns1)c1ccc(NCc2ccccc2)cc1 [Compound 118, 4-(benzylamino)-N-[3-(2-pyridyl)-1,2,4-thiadiazol-5-yl]benzamide]",< 5 µM
4,"O=C(Nc1nc(-c2ccccn2)ns1)c1ccc(Cc2ccccc2)cc1 [Compound 89, 4-benzyl-N-[3-(2-pyridyl)-1,2,4-thiadiazol-5-yl]benzamide]",< 5 µM
5,"O=C(Nc1nc(-c2ccccn2)ns1)c1ccc(NC2CCNCC2)cc1 [Compound 79, 4-(4-piperidylamino)-N-[3-(2-pyridyl)-1,2,4-thiadiazol-5-yl]benzamide]",< 5 µM
6,"O=C(Nc1nc(-c2ccccn2)ns1)c1ccc(C(=O)N2CCCCC2)cc1 [Compound 72, 4-(piperidine-1-carbonyl)-N-[3-(2-pyridyl)-1,2,4-thiadiazol-5-yl]benzamide]",< 5 µM
7,"O=C(Nc1nc(-c2ccccn2)ns1)c1ccc(I)cc1 [Compound 67, 4-iodo-N-[3-(2-pyridyl)-1,2,4-thiadiazol-5-yl]benzamide]",< 5 µM
8,"O=C(Nc1nc(-c2cccc(-c3cccnc3)n2)ns1)c1ccc(C(F)(F)F)cc1 [Compound 116, N-[3-[6-(3-pyridyl)-2-pyridyl]-1,2,4-thiadiazol-5-yl]-4-(trifluoromethyl)benzamide]",< 5 µM
9,"CC(C)(C)COc1ccnc(-c2nsc(NC(=O)c3ccc(C(F)(F)F)cc3)n2)c1 [Compound 143, N-[3-[4-(2,2-dimethylpropoxy)-2-pyridyl]-1,2,4-thiadiazol-5-yl]-4-(trifluoromethyl)benzamide]",< 5 µM

# Reference: patent US9643963B2, “Antiparasitic compounds” (Avista Pharma Solutions, Inc., priority 2013, dated 2017)
